Data from US8765669B2, “Glycosylated GLP-1 peptide” (Glytech, Inc., priority 2008, dated 2014).

Legend:
C57BL/6JJcl mice = assay: Oral Glucose Tolerance Test (OGTT); assay type: in vivo
Method: After 30 minutes, a glucose solution was orally administered at a dose of 1 mg/g. Blood was collected from the orbits before the glucose administration and 30 minutes, 60 minutes and 120 minutes after the glucose administration. Blood-sugar levels were measured using ACCU-CHEK Aviva (Roche Diagnostics). In the drawings below, for example, “26,34Cys GLP-1-disialo”, which is an oligosaccharide chain added GLP-1 peptide wherein amino acids at positions 26 and 34 of GLP-1 are each substituted with disialo oligosaccharide chain added Cys, is referred to as “C26,C34”, if necessary. The same holds true for other oligosaccharide chains and amino acid sites.
Next, 18,36Cys GLP-1-disialo and GLP-1 were evaluated by OGTT using doses of 1/10 (0.9 nmol/kg) and 9 nmol/kg, respectively, and compared.

[1] = target: T1, DPP-IV (dipeptidyl peptidase IV from porcine kidney) (Sus scrofa, UniProt P22411); assay: Test of resistance to dipeptidyl peptidase IV (DPP-IV); assay type: in vitro ADME; details: half-life (t1/2) in DPP-IV solution at 37° C., GLP-1 of Comparative Example 1 defined as standard (=1)
T1 construct: dipeptidyl peptidase IV from porcine kidney, product of SIGMA; purchased SIGMA; host or cells: porcine kidney (tissue-derived enzyme)
Method: Each solution mixture was adjusted with 100 mM sodium phosphate buffer to 100 μl in total and allowed to react at 37° C. A 10 μaliquot of the reaction solution was mixed with 15 μl of 10% trifluoroacetic acid prepared in advance in another Eppendorf tube.

T1 sequence (P22411 whole entry): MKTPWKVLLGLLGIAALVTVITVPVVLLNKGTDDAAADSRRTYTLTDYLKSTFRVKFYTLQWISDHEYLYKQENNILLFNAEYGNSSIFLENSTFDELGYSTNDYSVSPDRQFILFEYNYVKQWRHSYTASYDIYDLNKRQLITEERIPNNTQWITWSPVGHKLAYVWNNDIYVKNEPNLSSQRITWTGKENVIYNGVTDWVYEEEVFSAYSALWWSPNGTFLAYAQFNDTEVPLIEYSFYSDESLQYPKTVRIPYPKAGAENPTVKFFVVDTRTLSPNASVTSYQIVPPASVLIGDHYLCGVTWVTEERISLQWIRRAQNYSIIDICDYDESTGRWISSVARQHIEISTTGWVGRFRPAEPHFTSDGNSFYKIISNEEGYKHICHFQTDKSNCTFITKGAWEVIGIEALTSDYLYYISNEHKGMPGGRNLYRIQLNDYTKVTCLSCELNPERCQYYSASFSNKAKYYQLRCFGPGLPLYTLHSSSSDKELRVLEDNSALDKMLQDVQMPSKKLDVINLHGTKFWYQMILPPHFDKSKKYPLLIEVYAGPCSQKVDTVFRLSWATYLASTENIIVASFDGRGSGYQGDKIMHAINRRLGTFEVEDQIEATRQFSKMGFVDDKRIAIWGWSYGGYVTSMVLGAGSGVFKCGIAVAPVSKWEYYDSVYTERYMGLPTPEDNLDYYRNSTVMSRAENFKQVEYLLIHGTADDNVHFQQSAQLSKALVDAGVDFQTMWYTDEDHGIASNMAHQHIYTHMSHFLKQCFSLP

SMILES	effect of suppressing rise in blood-sugar levels (C57BL/6JJcl mice; 0.9 nmol/kg intraperitoneal, compared with GLP-1 at 9 nmol/kg, FIG. 5)	effect of suppressing rise in blood-sugar levels relative to that of GLP-1 (C57BL/6JJcl mice; OGTT, from doses giving almost equal effect (0.9 vs 9 nmol/kg))	Relative Resistance [1]
CC[C@H](C)[C@H](NC(=O)[C@H](Cc1ccccc1)NC(=O)[C@H](CCC(=O)O)NC(=O)[C@H](CCCCN)NC(=O)[C@H](C)NC(=O)[C@H](C)NC(=O)[C@H](CCC(N)=O)NC(=O)CNC(=O)[C@H](CCC(=O)O)NC(=O)[C@H](CC(C)C)NC(=O)[C@H](Cc1ccc(O)cc1)NC(=O)[C@H](CSCC(=O)N[C@@H]1O[C@H](CO)[C@@H](O[C@@H]2O[C@H](CO)[C@@H](O[C@@H]3O[C@H](CO[C@H]4O[C@H](CO)[C@@H](O)[C@H](O)[C@@H]4O[C@@H]4O[C@H](CO)[C@@H](O[C@@H]5O[C@H](CO[C@]6(C(=O)O)C[C@H](O)[C@@H](NC(C)=O)[C@H]([C@H](O)[C@H](O)CO)O6)[C@H](O)[C@H](O)[C@H]5O)[C@H](O)[C@H]4NC(C)=O)[C@@H](O)[C@H](O[C@H]4O[C@H](CO)[C@@H](O)[C@H](O)[C@@H]4O[C@@H]4O[C@H](CO)[C@@H](O[C@@H]5O[C@H](CO[C@]6(C(=O)O)C[C@H](O)[C@@H](NC(C)=O)[C@H]([C@H](O)[C@H](O)CO)O6)[C@H](O)[C@H](O)[C@H]5O)[C@H](O)[C@H]4NC(C)=O)[C@@H]3O)[C@H](O)[C@H]2NC(C)=O)[C@H](O)[C@H]1NC(C)=O)NC(=O)[C@H](CO)NC(=O)[C@@H](NC(=O)[C@H](CC(=O)O)NC(=O)[C@H](CO)NC(=O)[C@@H](NC(=O)[C@H](Cc1ccccc1)NC(=O)[C@@H](NC(=O)CNC(=O)[C@H](CCC(=O)O)NC(=O)[C@H](C)NC(=O)[C@@H](N)Cc1c[nH]cn1)[C@@H](C)O)[C@@H](C)O)C(C)C)C(=O)N[C@@H](C)C(=O)N[C@@H](Cc1c[nH]c2ccccc12)C(=O)N[C@@H](CC(C)C)C(=O)N[C@H](C(=O)N[C@@H](CCCCN)C(=O)NCC(=O)N[C@@H](CSCC(=O)N[C@@H]1O[C@H](CO)[C@@H](O[C@@H]2O[C@H](CO)[C@@H](O[C@@H]3O[C@H](CO[C@H]4O[C@H](CO)[C@@H](O)[C@H](O)[C@@H]4O[C@@H]4O[C@H](CO)[C@@H](O[C@@H]5O[C@H](CO[C@]6(C(=O)O)C[C@H](O)[C@@H](NC(C)=O)[C@H]([C@H](O)[C@H](O)CO)O6)[C@H](O)[C@H](O)[C@H]5O)[C@H](O)[C@H]4NC(C)=O)[C@@H](O)[C@H](O[C@H]4O[C@H](CO)[C@@H](O)[C@H](O)[C@@H]4O[C@@H]4O[C@H](CO)[C@@H](O[C@@H]5O[C@H](CO[C@]6(C(=O)O)C[C@H](O)[C@@H](NC(C)=O)[C@H]([C@H](O)[C@H](O)CO)O6)[C@H](O)[C@H](O)[C@H]5O)[C@H](O)[C@H]4NC(C)=O)[C@@H]3O)[C@H](O)[C@H]2NC(C)=O)[C@H](O)[C@H]1NC(C)=O)C(=O)NCC(=O)O)C(C)C [Example 2, 18 and 36Cys-disialo oligosaccharide Chain Added GLP-1]	almost equal effect of suppressing rise in blood-sugar levels to that of GLP-1	about 10 times	128.6
CC[C@H](C)[C@H](NC(=O)[C@H](Cc1ccccc1)NC(=O)[C@H](CCC(=O)O)NC(=O)[C@H](CCCCN)NC(=O)[C@H](C)NC(=O)[C@H](C)NC(=O)[C@H](CCC(N)=O)NC(=O)CNC(=O)[C@H](CCC(=O)O)NC(=O)[C@H](CC(C)C)NC(=O)[C@H](Cc1ccc(O)cc1)NC(=O)[C@H](CO)NC(=O)[C@H](CO)NC(=O)[C@@H](NC(=O)[C@H](CC(=O)O)NC(=O)[C@H](CO)NC(=O)[C@@H](NC(=O)[C@H](Cc1ccccc1)NC(=O)[C@@H](NC(=O)CNC(=O)[C@H](CCC(=O)O)NC(=O)[C@H](C)NC(=O)[C@@H](N)Cc1c[nH]cn1)[C@@H](C)O)[C@@H](C)O)C(C)C)C(=O)N[C@@H](CSCC(=O)N[C@@H]1O[C@H](CO)[C@@H](O)[C@H](O[C@@H]2O[C@H](C(=O)O)[C@@H](O[C@@H]3O[C@H](CO)[C@@H](O)[C@H](O[C@@H]4O[C@H](C(=O)O)[C@@H](O[C@@H]5O[C@H](CO)[C@@H](O)[C@H](O[C@@H]6O[C@H](C(=O)O)[C@@H](O[C@@H]7O[C@H](CO)[C@@H](O)[C@H](O[C@@H]8O[C@H](C(=O)O)[C@@H](O[C@@H]9O[C@H](CO)[C@@H](O)[C@H](O[C@@H]%10O[C@H](C(=O)O)[C@@H](O[C@@H]%11O[C@H](CO)[C@@H](O)[C@H](O[C@@H]%12O[C@H](C(=O)O)[C@@H](O[C@@H]%13O[C@H](CO)[C@@H](O)[C@H](O[C@@H]%14O[C@H](C(=O)O)[C@@H](O[C@@H]%15O[C@H](CO)[C@@H](O)[C@H](O[C@@H]%16O[C@H](C(=O)O)[C@@H](O)[C@H](O)[C@H]%16O)[C@H]%15NC(C)=O)[C@H](O)[C@H]%14O)[C@H]%13NC(C)=O)[C@H](O)[C@H]%12O)[C@H]%11NC(C)=O)[C@H](O)[C@H]%10O)[C@H]9NC(C)=O)[C@H](O)[C@H]8O)[C@H]7NC(C)=O)[C@H](O)[C@H]6O)[C@H]5NC(C)=O)[C@H](O)[C@H]4O)[C@H]3NC(C)=O)[C@H](O)[C@H]2O)[C@H]1NC(C)=O)C(=O)N[C@@H](Cc1c[nH]c2ccccc12)C(=O)N[C@@H](CC(C)C)C(=O)N[C@H](C(=O)N[C@@H](CCCCN)C(=O)NCC(=O)N[C@@H](CCCNC(=N)N)C(=O)NCC(=O)O)C(C)C [Example 10, 30Cys-hyaluronic acid hexadecasaccharide (HA-16) Added GLP-1 Peptide]			3.9
CC[C@H](C)[C@H](NC(=O)[C@H](Cc1ccccc1)NC(=O)[C@H](CCC(=O)O)NC(=O)[C@H](CCCCN)NC(=O)[C@H](C)NC(=O)[C@H](C)NC(=O)[C@H](CCC(N)=O)NC(=O)CNC(=O)[C@H](CCC(=O)O)NC(=O)[C@H](CC(C)C)NC(=O)[C@H](Cc1ccc(O)cc1)NC(=O)[C@H](CO)NC(=O)[C@H](CO)NC(=O)[C@@H](NC(=O)[C@H](CC(=O)O)NC(=O)[C@H](CO)NC(=O)[C@@H](NC(=O)[C@H](Cc1ccccc1)NC(=O)[C@@H](NC(=O)CNC(=O)[C@H](CCC(=O)O)NC(=O)[C@H](C)NC(=O)[C@@H](N)Cc1c[nH]cn1)[C@@H](C)O)[C@@H](C)O)C(C)C)C(=O)N[C@@H](C)C(=O)N[C@@H](Cc1c[nH]c2ccccc12)C(=O)N[C@@H](CC(C)C)C(=O)N[C@H](C(=O)N[C@@H](CCCCN)C(=O)NCC(=O)N[C@@H](CSCC(=O)N[C@@H]1O[C@H](CO)[C@@H](O)[C@H](O[C@@H]2O[C@H](C(=O)O)[C@@H](O[C@@H]3O[C@H](CO)[C@@H](O)[C@H](O[C@@H]4O[C@H](C(=O)O)[C@@H](O[C@@H]5O[C@H](CO)[C@@H](O)[C@H](O[C@@H]6O[C@H](C(=O)O)[C@@H](O[C@@H]7O[C@H](CO)[C@@H](O)[C@H](O[C@@H]8O[C@H](C(=O)O)[C@@H](O[C@@H]9O[C@H](CO)[C@@H](O)[C@H](O[C@@H]%10O[C@H](C(=O)O)[C@@H](O[C@@H]%11O[C@H](CO)[C@@H](O)[C@H](O[C@@H]%12O[C@H](C(=O)O)[C@@H](O[C@@H]%13O[C@H](CO)[C@@H](O)[C@H](O[C@@H]%14O[C@H](C(=O)O)[C@@H](O[C@@H]%15O[C@H](CO)[C@@H](O)[C@H](O[C@@H]%16O[C@H](C(=O)O)[C@@H](O)[C@H](O)[C@H]%16O)[C@H]%15NC(C)=O)[C@H](O)[C@H]%14O)[C@H]%13NC(C)=O)[C@H](O)[C@H]%12O)[C@H]%11NC(C)=O)[C@H](O)[C@H]%10O)[C@H]9NC(C)=O)[C@H](O)[C@H]8O)[C@H]7NC(C)=O)[C@H](O)[C@H]6O)[C@H]5NC(C)=O)[C@H](O)[C@H]4O)[C@H]3NC(C)=O)[C@H](O)[C@H]2O)[C@H]1NC(C)=O)C(=O)NCC(=O)O)C(C)C [Example 11, 36Cys-hyaluronic acid hexadecasaccharide (HA-16) Added GLP-1 Peptide]			3
